Results reported in US7671176B2, “Opiate receptor polypeptide” (The Research Foundation of SUNY, priority 2001, dated 2010).

Tested on: mu4 opiate receptor mRNA in mononuclear cells
Assay: Real-time RT-PCR of mu4 mRNA expression in treated human mononuclear cells
Assay type: cell-based
Details: SNAP 1 μM
Experimental: Human heparinized whole blood cells obtained from volunteer blood donors (Long Island Blood Services; Melville, N.Y.) were immediately separated using the 1-Step Polymorphs (Accurate Chemical and Scientific Corporation, Westbury, N.Y.) gradient medium. Five mL of the heparinized blood was layered over 3.5 mL of polymorphs in a 14 mL round-bottom tube and centrifuged for 35 minutes at 500×g in a swinging-bucket rotor at 18° C. […] In addition, residual red blood cells were lysed using ACK lysing buffer (Current Protocol in Immunology). […] The cells were then treated with SNAP (1 μM), SNAP plus superoxide dismutase (SOD; 100 units/mL) (SIGMA St. Louis, Mo.), or SOD (100 U/mL), respectively.
After incubation, mononuclear cells were pelleted by centrifugation, and total RNA was isolated with the RNeasy Protect Mini Kit (Qiagen, Stanford, Calif.) following the directions supplied by the manufacturer. RNA was eluted with 50 μL of RNase-free water.
First strand cDNA synthesis was performed using random hexamers (GIBCO, BRL, Gaithesburg, Md.). 3 μg of total RNA isolated from human mononuclear cells were denatured at 95° C. and reverse transcribed at 40° C. for 1 hour using Superscript® II Rnase H-RT (GIBCO BRL, Gaithesburg Md.). Five μL of the RT product was used for the real-time PCR reaction.
Primers and probe specific for the mu4 opiate receptor sequence were designed as follows using the software Primer Express® (Applied Biosystems). […] The Taqman® probe was constructed with the 5′ reporter dye 6-carboxyfluorescein and a 3′ quencher dye 6-carboxy-tetramethyl-rhodoamine. The 2× universal master mix (Applied Biosystems) containing PCR buffer, MgCl2, dNTPs, and the thermal stable AmpliTaq Gold® DNA polymerase was used in the PCR reactions. In addition, 200 μM of reverse and forward primers, 100 μM Taqman® probe, 5 μL of RT product, and Rnase/DNase-free water were added to the master mix to a final volume of 50 μL. […] The PCR results were analyzed with the GeneAmp® 5700 SDS software (Applied Biosystems). […]

## CC(=O)NC(C(=O)O)C(C)(C)SN=O (racemic) [SNAP, S-nitroso-N-acetyl-DL-penicillamine]
After 6 hours of treatment, p=0.029 vs control
  mu4 mRNA expression: 8±5.6 relative mRNA level
After 24 hours of treatment, n=1
  mu4 mRNA expression: 10.5 relative mRNA level
Treated for 30 minutes, SOD 100 units/mL, nontreated cells 1.0
  mu4 mRNA expression: 0.05 relative mRNA level
